Experimental data reported in US4032573A, “Ortho-acylated anilide derivatives and salts thereof” (Sumitomo Chemical Company, Limited, priority 1976, dated 1977).

Legend:
guinea pigs = experiment: Local anesthetic activity in guinea pigs (method of Bulbring and Waida), intracutaneous injection; format: in vivo
Method: 1. Local anesthetic activity
The local anesthetic activity of each of the compounds was determined in accordance with the method of Bulbring E. and Waida, Journal Pharmacol. Exp. Ther., 85, 78 (1945).

mice = experiment: Anti-arrhythmic activity in mice (method of Lawson), intraperitoneal injection; format: in vivo; conditions: Mus musculus, ip
Method: 2. Anti-arrhythmic activity
The anti-arrhythmic activity of each of the compounds was determined in accordance with the method of J. W. Lawson, Journal Pharmacol. Exp. Ther., 160, 22 (1967).

Question: Which results are given for `CCN(CC)CCC(=O)Nc1c(C)cccc1C(C)=O`?
Answer: Local anesthetic activity in guinea pigs ED50 intracutaneous injection (guinea pigs): 0.33 W/V %; ED50 (mice): 50 mg/kg

Question: With `CCCC(=O)c1cccc(C)c1NC(=O)CCN(CC)CC` as the compound, how does the “Local anesthetic activity in guinea pigs ED50 intracutaneous injection” value (“Local anesthetic activity” below) (guinea pigs) read?
Answer: The value was 0.09 W/V %.

Question: And the ED50 (mice)?
Answer: The ED50 was 25 mg/kg.

Question: Which “Local anesthetic activity” value (guinea pigs) does the source give for `CCN(CC)CCC(=O)Nc1cc(C(C)=O)ccc1C` here?
Answer: Its value is 1.48 W/V %.

Question: And the ED50 (mice)?
Answer: The ED50 was 97 mg/kg.

Question: How did the “Local anesthetic activity” value (guinea pigs) turn out when `CCN(CC)CC(=O)Nc1cccc(C(C)=O)c1` was run?
Answer: Its value is 1.0 W/V %.

Question: What about the ED50 (mice) of the same compound?
Answer: Its ED50 is 180 mg/kg.

Question: Which “Local anesthetic activity” value (guinea pigs) does the source give for `CCN(CC)CC(=O)Nc1ccc(C(C)=O)cc1` here?
Answer: Its value is 1.0 W/V %.

Question: What about the ED50 (mice) of the same compound?
Answer: The ED50 was 250 mg/kg.

Question: `CCN(CC)CC(=O)Nc1c(C)cccc1C(C)=O` was tested. Which “Local anesthetic activity” value (guinea pigs) did it give?
Answer: The value was 0.12 W/V %.

Question: What about the ED50 (mice) of the same compound?
Answer: The ED50 was 80 mg/kg.
